Measured values: patent US20260274838A1 (PURDUE RESEARCH FOUNDATION, priority 2023, published 2026)
Entries after “also recorded” stand apart in the source; their conditions may differ.

Experiments:
hSTING = molecular target: T1, hSTING (Homo sapiens, UniProt Q86WV6); assay: STING based fluorescence polarization assay (F-c-di-GMP probe displacement); type: binding; conditions: 20 μM compound, 50 nM probe, 10 μM STING, 5 minutes; compared to HSD1077
T1 construct: SUMO; made in house; host or cells: E. coli Rosetta 2 (pLysS)
T1 sequence (Q86WV6 whole entry H232R): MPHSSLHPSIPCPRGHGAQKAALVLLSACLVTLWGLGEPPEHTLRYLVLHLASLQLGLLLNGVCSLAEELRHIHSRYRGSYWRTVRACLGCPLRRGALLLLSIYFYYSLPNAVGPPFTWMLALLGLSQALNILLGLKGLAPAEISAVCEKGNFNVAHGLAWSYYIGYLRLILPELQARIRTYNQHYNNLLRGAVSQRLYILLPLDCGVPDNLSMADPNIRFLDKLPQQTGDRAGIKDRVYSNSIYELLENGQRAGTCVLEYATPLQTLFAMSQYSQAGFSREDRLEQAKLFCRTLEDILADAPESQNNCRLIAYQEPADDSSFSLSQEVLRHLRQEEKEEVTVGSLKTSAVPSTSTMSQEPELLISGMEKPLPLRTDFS
Method: As a preliminary screen, 20 μM of compounds and 50 nM of the probe were incubated with 10 μM of STING for 5 minutes prior to evaluation of fluorescence anisotropy.
50 nM of 2′-Fluo-AHC-c-diGMP (Biolog) was incubated with 10 μM hSTING and 20 μM of screening compounds in dimethyl sulfoxide (DMSO) for 5 minutes in 1× Phosphate buffered saline at room temperature. […] Anisotropy was normalized via equating measurements with 0 μM hSTING to zero. […] Anisotropy was converted to a fraction bound by F-c-di-GMP using the following equation: […]
wherein r refers to the anisotropy value at 10 μM hSTING concentration upon compound addition, rfree refers to the anisotropy value of unbound fluorophore, and Q refers to the ratio of fluorescence intensities between bound and free fluorophore.

RAW ISG Blue cells = assay: Detection of IRF activation in RAW ISG Blue reporter cells (SEAP, QUANTI-Blue); type: cell-based, murine
Text: To understand possible modulatory effects of compound HSD1077 on the cGAS-STING axis, the quantification of type 1 interferon expression in-cellulo upon compound HSD1077 treatment, investigated via a commercially available murine macrophage cell line RAW ISG Blue, which express secreted embryonic alkaline phosphatase (SEAP) under the control of an interferon-stimulated gene 54 (ISG54), inducible promoter. Upon the stimulation of pathways, such as cGAS-STING, which activate type 1 interferon production, SEAP would be expressed and can be quantified using a chromogenic detection substrate Quantiblue™. […] Excitedly, concentrations as low as 20 nM caused a noticeable decrease in interferon expression (FIG. 8).
After which, media from each respective well was collected for estimation of IRF activation via SEAP colorimetric assay via QUANTI-blue reagent (Invivogen) as per manufacturer protocols, using a clear 96 well flat bottom plate. 20 μL of the media obtained in each individual well was incubated with 180 μL of QUANTI-Blue™ Solution for 6 hours at 37° C. Absorbance (630 nm) of each well was quantified via Biotek Cytation 5 multi-mode reader.

RAW ISG Blue macrophages = assay: Interferon-β mRNA levels in RAW cells via qPCR; type: cell-based, murine; conditions: pre-treatment 6 hours, then 100 μM cGAMP 3 hours; vs DMSO-treated cells stimulated with cGAMP
Method: FIG. 8B illustrates RAW ISG cells were pre-treated with either compound HSD1077 or compound H-151 as a positive control for 6 hours and subsequently stimulated with 100 μM of cGAMP for 3 hours for induction of Interferon-β. mRNA levels were quantified by RT-PCR. Gene expression was normalized with β-actin. Experiments were performed in two biological replicates. Error bars indicate the error of the mean of two independent experiments.
As a secondary analysis, mRNA levels of murine Interferon-β were also quantified via quantitative PCR (qPCR), upon cGAMP stimulation on RAW macrophages with or without compound HSD1077 pre-treatment.
1×10^6 cells were seeded in 6 well plates and incubated for 24 hours to allow for adherence. […] Cells were subsequently harvested, and RNA extraction was performed via the use of TRIzol reagent (Thermo-fisher). 1 μg of RNA harvested from each sample was used for cDNA synthesis using random hexamers, dNTPs, and superscript II reverse transcriptase (Thermo-fisher). […] The forward and reverse primers for the relative quantification of Interferon-β and β-actin were used as reported in Wiser C, Science Reports, 2020, 10, 1-11 and Wang M, ACS Chemical Biology, 2021, 16, 1663-1670, which are hereby specifically incorporated by reference for its teachings regarding the same.

Raw ISG cells = assay: Western blotting of p-STING and p-IRF3 in Raw ISG cells; type: cell-based, murine; conditions: 5 μM for 4 hours, then 100 μM cGAMP 3 hours; vs DMSO+cGAMP
THP-1 dual cells = assay: Detection of IRF activation in THP-1 dual reporter cells (Lucia luciferase, QUANTI-Luc), cGAMP stimulation; conditions: then 2'-3' cGAMP 24 hours
Method: Using THP-1 dual cell lines (Invivogen) featuring a luciferase gene under the control of an ISG54 inducible promoter, relative quantifications of type 1 interferon expression could be achieved through luciferase detection upon cGAS-STING pathway induction.
1×10^5 cells were seeded in 96 well plates and incubated for 24 hours. After which, cells were pre-treated with the drug compound for 1 hour, followed by 100 μM of 2′-3′ cGAMP for induction of the cGAS-STING pathway, and incubated for 24 hours. After which, cell suspension from each respective well was collected and for relative quantification of IRF activation via Lucia luciferase based luminescent assay via QUANTI-Luc™ reagent (Invivogen). 10 μL of the cell suspension obtained in each individual well was added to 50 μL of QUANTI-Luc™ Solution. […] Experiments were performed in biological triplicates, with data reported as the mean and standard deviation of 3 data points.

| STING binding (fraction of F-c-di-GMP probe bound, Fbound), in words (hSTING) | Compound | other results |
| --- | --- | --- |
| significant decrease in STING binding | c1cc(-c2nc3ccc4[nH]ncc4c3c3c2CCCC3)n[nH]1 [Compound 19, 7-(1H-pyrazol-3-yl)-8,9,10,11-tetrahydro-3H-pyrazolo[4,3-a]phenanthridine] | – |
| reduced binding capabilities | CN1CCN(C(=O)c2ccc(-c3nc4ccc5[nH]ncc5c4c4c3CCCC4)cc2)CC1 [Compound 21, (4-methylpiperazin-1-yl) (4-(8,9,10,11-tetrahydro-3H-pyrazolo[4,3-a]phenanthridin-7-yl)phenyl)methanone] | – |
| negatively impacted STING binding | CN1CCN(C(=O)c2ccc(-c3nc4ccc5[nH]ncc5c4c4c3CCC4)cc2)CC1 [Compound 24, (4-methylpiperazin-1-yl) (4-(3,8,9,10-tetrahydrocyclopenta[c]pyrazolo[4,3-f]quinolin-7-yl)phenyl)methanone] | – |
| high probe displacement | CCn1nc(C)cc1C(=O)Nc1nc2cc(C(N)=O)cc(OC)c2n1C/C=C/Cn1c(NC(=O)c2cc(C)nn2CC)nc2cc(C(N)=O)cc(OCCCN3CCOCC3)c21 [DIABZI-3, reference compound] | – |
| negatively affected STING binding | (2-fluoro-4-(8,9,10,11-tetrahydro-3H-pyrazolo[4,3-a]phenanthridin-7-yl)phenyl) (4-methylpiperazin-1-yl)methanone [Compound 27] | – |
| generally retained STING binding | CN1CCN(C(=O)c2ccc(-c3nc4ccc5[nH]ncc5c4c4c3CCCC4)c(F)c2)CC1 [Compound 28, (3-fluoro-4-(8,9,10,11-tetrahydro-3H-pyrazolo[4,3-a]phenanthridin-7-yl)phenyl) (4-methylpiperazin-1-yl)methanone] | – |
| poor STING binder | Cn1ncc2c3c4c(c(-c5cn[nH]c5)nc3ccc21)CCCC4 [Compound 7, 3-Methyl-7-(1H-pyrazol-4-yl)-8,9,10,11-tetrahydro-3H-pyrazolo[4,3-a]phenanthridine] | – |
| significant decrease in STING binding | c1n[nH]cc1-c1nc2ccc3c(c2c2c1CCCC2)OCO3 [Compound 3, 7-(1H-pyrazol-4-yl)-8,9,10,11-tetrahydro-[1,3]dioxolo[4,5-a]phenanthridine] | – |
| – | c1n[nH]cc1-c1nc2ccc3[nH]ncc3c2c2c1CCCC2 [HSD1077, 7-(1H-pyrazol-4-yl)-8,9,10,11-tetrahydro-3H-pyrazolo[4,3-a]phenanthridine] | type 1 interferon production on treatment with compound alone (agonism) (RAW ISG Blue cells; 24 hours, no cGAMP): did not induce type 1 interferon production; also recorded: non-significant changes in interferon expression levels; type 1 interferon expression after pre-treatment and cGAMP induction (RAW ISG Blue cells; pre-treatment (1 μM or lower) 2 hours, then 100 μM 2'-3' cGAMP 24 hours): can suppress type-1 interferon expression; also recorded: dose-dependent attenuation in type 1 interferon expression; also recorded: attenuated expression of type 1 interferon in a dose-dependent manner; concentration causing a noticeable decrease in interferon expression (RAW ISG Blue cells; pre-treatment before cGAMP): ≤ 20 nM; murine Interferon-β mRNA levels (RAW ISG Blue macrophages): dose-dependent reduction in murine Interferon-β levels; phospho-IRF3 level (Raw ISG cells): decreased levels; also recorded: attenuates; phospho-STING level (Raw ISG cells): decreased levels; also recorded: attenuates; type 1 interferon expression after pre-treatment and cGAMP stimulation (THP-1 dual cells): can suppress type-1 interferon expression; also recorded: reduced type 1 interferon expression in a dose-dependent manner; also recorded: attenuated expression of interferon in a dose-dependent manner |
| reduced binding capabilities | CC(=O)N1CCN(C(=O)c2ccc(-c3nc4ccc5[nH]ncc5c4c4c3CCCC4)cc2)CC1 [Compound 22, 1-(4-(4-(8,9,10,11-tetrahydro-3H-pyrazolo[4,3-a]phenanthridin-7-yl)benzoyl)piperazin-1-yl)ethan-1-one] | – |
| negatively affected STING binding | CN1CCN(C(=O)c2ccc(-c3nc4c(F)cc5[nH]ncc5c4c4c3CCCC4)cc2)CC1 [Compound 26, (4-(5-fluoro-8,9,10,11-tetrahydro-3H-pyrazolo[4,3-a]phenanthridin-7-yl)phenyl) (4-methylpiperazin-1-yl)methanone] | – |
| reduced STING binding | CCc1cc(-c2cn[nH]c2)nc2ccc3[nH]ncc3c12 [Compound 9, 9-Ethyl-7-(1H-pyrazol-4-yl)-3H-pyrazolo[4,3-f]quinoline] | – |
| reduced STING binding | c1n[nH]cc1-c1nc2ccc3[nH]ncc3c2c2c1CCC2 [Compound 10] | – |
| significant decrease in STING binding | COc1cc2nc(-c3cn[nH]c3)c3c(c2cc1OC)CCCC3 [Compound 2, 2,3-Dimethoxy-6-(1H-pyrazol-4-yl)-7,8,9,10-tetrahydrophenanthridine] | – |
| reduced binding capabilities | Cn1cc(-c2nc3ccc4[nH]ncc4c3c3c2CCCC3)cn1 [Compound 20, 7-(1-Methyl-1H-pyrazol-4-yl)-8,9,10,11-tetrahydro-3H-pyrazolo[4,3-a]phenanthridine] | – |
| negatively impacted STING binding | CN1CCN(C(=O)c2ccc(-c3nc4ccc5[nH]ncc5c4c4c3CCCCC4)cc2)CC1 [Compound 23] | – |

| Compound | STING binding (fraction of F-c-di-GMP probe bound, Fbound), in words (hSTING) | other results |
| --- | --- | --- |
| O=C1c2ccccc2C(=O)N1C1CCc2c(c(-c3cn[nH]c3)nc3ccc4[nH]ncc4c23)C1 (stereo not drawn) [Compound 16, 2-(7-(1H-pyrazol-4-yl)-8,9,10,11-tetrahydro-3H-pyrazolo[4,3-a]phenanthridin-9-yl)isoindoline-1,3-dione] | not well tolerated | – |
| 7-(1H-pyrazol-4-yl)-8,9,10,11-tetrahydro-3H-imidazo[4,5-a]phenanthridine [Compound 17] | not well tolerated | – |
